Key:
GSK3α = GSK3α (Homo sapiens (Human), UniProt P49840); test: GSK 3α enzyme inhibition (FRET, Method 2); assay type: biochemical
Method: (§1) The enzyme inhibitory activities of compounds disclosed herein are determined by FRET using synthetic peptides labelled with both donor and acceptor fluorophores (Z-LYTE, Invitrogen Ltd., Paisley, UK).
The inhibitory activities of compounds of the invention against the GSK 3α enzyme isoform (Invitrogen), are evaluated by determining the level of activation/phosphorylation of the target peptide. The GSK3-α protein (500 ng/mL, 2.5 μL) is mixed with the test compound (2.5 μL at either 4 μg/mL, 0.4 μg/mL, 0.04 μg/mL, or 0.004 μg/mL) for 2 hr at RT. The FRET peptide (8 μM, 2.5 μL), which is a phosphorylation target for GSK3α, and ATP (40 μM, 2.5 μL) are then added to the enzyme/compound mixture and the resulting mixture incubated for 1 hr. Development reagent (protease, 5 μL) is added for 1 hr prior to detection in a fluorescence microplate reader (Varioskan® Flash, ThermoFisher Scientific).
(§2) In all cases, the site-specific protease cleaves non-phosphorylated peptide only and eliminates the FRET signal. Phosphorylation levels of each reaction are calculated using the ratio of coumarin emission (donor) over fluorescein emission (acceptor), for which high ratios indicate high phosphorylation and low ratios indicate low phosphorylation levels.

PBMCs = test: (b) LPS-induced TNFα/IL-8 release in PBMC cells; assay type: cell-based; conditions: Homo sapiens, read-out: IC50 for Inhibition of Cytokine Release, IL-8
Method: Peripheral blood mononuclear cells (PBMCs) from healthy subjects are separated from whole blood using a density gradient (Lymphoprep, Axis-Shield Healthcare). The PBMCs are seeded in 96 well plates and treated with compounds at the desired concentration for 2 hours before addition of 1 ng/ml LPS (Escherichia Coli 0111:B4 from Sigma Aldrich) for 24 hours under normal tissue culture conditions (37° C., 5% CO2). The supernatant is harvested for determination of IL-8 and TNFα concentrations by sandwich ELISA (Duo-set, R&D systems) and read on the fluorescence microplate reader (Varioskan® Flash, ThermoFisher Scientific).

HT29 cells = test: (d) IL-1β-induced IL-8 release in HT29 cells; assay type: cell-based; conditions: Homo sapiens, HT-29, read-out: IC50 for Inhibition of Cytokine Release, IL-8
Method: HT29 cells, a human colon adenocarcinoma cell line, are plated in a 96 well plate (24 hrs) and pre-treated with compounds at the desired concentration for 2 hours before addition of 5 ng/ml of IL-1β (Abeam) for 24 hours. Supernatants are harvested for IL-8 quantification by Sandwich ELISA (Duo-set, R&D System). The IC50 is determined from the dose response curve.

c-Src = c-Src (Homo sapiens (Human), UniProt P12931); test: c-Src enzyme inhibition (FRET); assay type: biochemical
Chain of c-Src (P12931 whole entry, looked up): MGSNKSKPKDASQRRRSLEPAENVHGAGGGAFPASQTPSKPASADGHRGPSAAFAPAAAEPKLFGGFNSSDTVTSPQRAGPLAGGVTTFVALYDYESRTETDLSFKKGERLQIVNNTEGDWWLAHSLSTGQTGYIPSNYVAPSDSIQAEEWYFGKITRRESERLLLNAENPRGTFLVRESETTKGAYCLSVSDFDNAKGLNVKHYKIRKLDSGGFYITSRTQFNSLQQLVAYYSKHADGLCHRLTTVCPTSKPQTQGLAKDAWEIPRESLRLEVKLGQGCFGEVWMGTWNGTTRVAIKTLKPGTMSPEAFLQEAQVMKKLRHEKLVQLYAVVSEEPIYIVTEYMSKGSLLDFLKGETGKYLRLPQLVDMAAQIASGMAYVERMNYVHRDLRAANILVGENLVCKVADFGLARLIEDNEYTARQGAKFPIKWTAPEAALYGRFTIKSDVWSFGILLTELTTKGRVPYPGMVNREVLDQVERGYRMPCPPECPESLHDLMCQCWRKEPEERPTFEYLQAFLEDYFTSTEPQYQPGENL
Method: as §1
(§3) The inhibitory activities of compounds of the invention against c-Src and Syk enzymes (Invitrogen), are evaluated in a similar fashion to that described hereinabove. The relevant enzyme (3000 ng/mL or 2000 ng/mL respectively, 2.5 μL) is incubated with the test compound (either 4 μg/mL, 0.4 μg/mL, 0.04 μg/mL, or 0.004 μg/mL, 2.5 μL each) for 2 hr at RT. The FRET peptides (8 μM. 2.5 μL), and appropriate ATP solutions (2.5 μL, 800 μM for c-Src, and 60 μM ATP for Syk) are then added to the enzymes/compound mixtures and incubated for 1 hr. Development reagent (protease, 5 μL) is added for 1 hr prior to detection in a fluorescence microplate reader (Varioskan® Flash, ThermoFisher Scientific).
as §2

Syk = Syk (Homo sapiens (Human), UniProt P43405); test: Syk enzyme inhibition (FRET); assay type: biochemical
Method: as §1, §3, §2

β-catenin = test: (m) Accumulation of β catenin in d-U937 cells; assay type: cell-based, human; conditions: Reference Compound at 1 μg/mL defined as 100%
Method: U937 cells, a human monocytic cell line, are differentiated into macrophage-type cells by incubation with PMA; (100 ng/mL) for between 48 to 72 hr. The cells are then incubated with either final concentrations of test compound or vehicle for 18 hr. The induction of β-catenin by the test compounds is stopped by replacing the media with 4% formaldehyde solution. Endogenous peroxide activity is neutralised by incubating with quenching buffer (100 μL, 0.1% sodium azide, 1% H2O2 in PBS with 0.05% Tween-20) for 20 min. The cells are washed with washing buffer (200 μL; PBS containing 0.05% Tween-20) and incubated with blocking solution (200 μL; 5% milk in PBS) for 1 hr, re-washed with washing buffer (200 μL) and then incubated overnight with anti-β-catenin antibody solution (50 μL) in 1% BSA/PBS (BD, Oxford, UK).
After washing with washing buffer (3×200 μL; PBS containing 0.05% Tween-20), cells are incubated with an HRP-conjugated secondary antibody solution (100 μL) in 1% BSA/PBS (Dako, Cambridge, UK) and the resultant signal is determined colourimetrically (OD: 450 nm with a reference wavelength of 655 nm) using TMB substrate (50 μL; R&D Systems, Abingdon, UK). This reaction is stopped by addition of 1N H2SO4 solution (50 μL). Cells are then washed with washing buffer and 2% crystal violet solution (50 μL) is applied for 30 min. After washing with washing buffer (3×200 μL), 1% SDS (100 μL) is added to each well and the plates are shaken lightly for 1 hr prior to measuring the absorbance at 595 nm (Varioskan® Flash, Thermo-Fisher Scientific).
The measured OD450-655 readings are corrected for cell number by dividing the OD450-655 by the OD595 readings.

p38 MAPKα = p38 MAPKα (Homo sapiens (Human), UniProt Q16539); test: p38 MAPKα enzyme inhibition (FRET, Method 2); assay type: biochemical
Chain of p38 MAPKα (Q16539 whole entry): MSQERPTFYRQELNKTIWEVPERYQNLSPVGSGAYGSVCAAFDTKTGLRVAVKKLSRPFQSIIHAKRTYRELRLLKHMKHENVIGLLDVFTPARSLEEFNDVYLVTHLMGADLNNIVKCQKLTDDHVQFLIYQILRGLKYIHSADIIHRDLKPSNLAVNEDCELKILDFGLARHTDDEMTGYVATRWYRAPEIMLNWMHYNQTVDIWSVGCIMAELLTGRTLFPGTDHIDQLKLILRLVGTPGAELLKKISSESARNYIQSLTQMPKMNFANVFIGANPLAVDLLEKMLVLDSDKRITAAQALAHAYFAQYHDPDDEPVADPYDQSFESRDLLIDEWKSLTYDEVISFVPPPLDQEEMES
Method: as §1
The inhibitory activities of test compounds against the p38 MAPKα isoform (MAPK14: Invitrogen), are evaluated indirectly by determining the level of activation/phosphorylation of the down-stream molecule, MAPKAP-K2. The p38 MAPKα protein (80 ng/mL, 2.5 μL) is mixed with the test compound (2.5 μL of either 4 μg/mL, 0.4 μg/mL, 0.04 μg/mL or 0.004 μg/mL) for 2 hr at RT. […] The mixture is incubated for 1 hr at RT. Development reagent (protease, 5 μL) is added for 1 hr prior to detection in a fluorescence microplate reader (Varioskan® Flash, ThermoFisher Scientific).
as §2

kinases = test: KinomeScan selectivity scores / number of hits; assay type: binding
Method: These assays may be conducted by DiscoverX (formerly Ambit; San Diego, Calif.). The percentage inhibition produced by incubation with a test compound may be calculated relative to the non-inhibited control.

Chain of GSK3α (P49840 whole entry): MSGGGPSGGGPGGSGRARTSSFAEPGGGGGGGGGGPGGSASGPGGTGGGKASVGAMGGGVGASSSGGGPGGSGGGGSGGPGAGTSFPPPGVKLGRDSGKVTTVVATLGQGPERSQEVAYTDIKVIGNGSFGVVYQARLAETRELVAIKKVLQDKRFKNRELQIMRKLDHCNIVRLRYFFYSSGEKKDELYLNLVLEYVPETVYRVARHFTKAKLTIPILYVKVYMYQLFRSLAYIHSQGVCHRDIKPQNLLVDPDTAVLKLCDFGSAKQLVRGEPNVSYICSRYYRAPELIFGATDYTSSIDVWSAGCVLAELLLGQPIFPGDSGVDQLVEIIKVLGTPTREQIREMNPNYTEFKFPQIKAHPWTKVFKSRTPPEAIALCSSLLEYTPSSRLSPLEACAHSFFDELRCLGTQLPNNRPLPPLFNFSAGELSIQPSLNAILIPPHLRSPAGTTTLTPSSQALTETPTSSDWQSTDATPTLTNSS

| IC50 (GSK3α) | IC50 (HT29 cells) | IC50 (c-Src) | IC50 (Syk) | IC50 (p38 MAPKα) | Structure (SMILES) | IC50 (PBMCs) | % β-catenin induction (β-catenin; 1 μg/mL) | % β-catenin induction (β-catenin; 5 μg/mL) | % β-catenin induction (β-catenin; 10 μg/mL) | KinomeScan S(1) number of hits (kinases; 50 nM) | KinomeScan S(10) number of hits (kinases; 50 nM) | KinomeScan S(35) number of hits (kinases; 50 nM) | KinomeScan S(1) number of hits (kinases; 500 nM) | KinomeScan S(10) number of hits (kinases; 500 nM) | KinomeScan S(35) number of hits (kinases; 500 nM) |
| --- | --- | --- | --- | --- | --- | --- | --- | --- | --- | --- | --- | --- | --- | --- | --- |
| 646 nM |  | 15 nM | 27 nM |  | COCCOCCOCCNC(=O)c1cc(Nc2nccc(Oc3ccc(NC(=O)Nc4cc(C(C)(C)C)nn4-c4ccc(N(C)C)cc4)c4ccccc34)n2)cc(OC)c1 [Example 16, 3-((4-((4-(3-(3-(tert-Butyl)-1-(4-(dimethylamino)phenyl)-1H-pyrazol-5-yl)ureido)-naphthalen-1-yl)oxy)pyrimidin-2-yl)amino)-5-methoxy-N-(2-(2-(2-methoxyethoxy)-ethoxy)ethyl)benzamide] | 2.7 nM |  |  |  |  |  |  |  |  |  |
| 12100 nM |  |  |  |  | C#Cc1cc(Nc2nccc(Oc3ccc(NC(=O)Nc4cc(C(C)(C)C)nn4-c4ccc(OC)cc4C)c4ccccc34)n2)cc(C(=O)NCCOCCOCCOC)c1 [Example 17, 3-((4-((4-(3-(3-(tert-Butyl)-1-(4-methoxy-2-methylphenyl)-1H-pyrazol-5-yl)ureido)-naphthalen-1-yl)oxy)pyrimidin-2-yl)amino)-5-ethynyl-N-(2-(2-(2-methoxyethoxy)-ethoxy)ethyl)benzamide] | 5 nM |  |  |  |  |  |  |  |  |  |
| 3200 nM | 2 nM | 18 nM | 57 nM | 34 nM | COCCOCCOCCNC(=O)c1cc(Nc2cc(Oc3ccc(NC(=O)Nc4cc(C(C)(C)C)nn4-c4cccc(CP(C)(C)=O)c4)c4ccccc34)ccn2)cc(OC)c1 [Example 15, 3-((4-((4-(3-(3-(tert-Butyl)-1-(3-((dimethylphosphoryl)methyl)phenyl)-1H-pyrazol-5-yl)-ureido)naphthalen-1-yl)oxy)pyridin-2-yl)amino)-5-methoxy-N-(2-(2-(2-methoxyethoxy)-ethoxy)ethyl)benzamide] | 1.2 nM | 4% | 11% | 27% |  |  |  |  |  |  |
| 12100 nM | 6.2 nM | > 1210 nM | > 1210 nM | 766 nM | C#Cc1cc(Nc2cc(Oc3ccc(NC(=O)Nc4cc(C(C)(C)C)nn4-c4ccc(N(C)C)cc4)c4ccccc34)ccn2)cc(C(=O)NCCOCCOCCOC)c1 [Example 11, 3-((4-((4-(3-(3-(tert-Butyl)-1-(4-(dimethylamino)phenyl)-1H-pyrazol-5-yl)ureido)-naphthalen-1-yl)oxy)pyridin-2-yl)amino)-5-ethynyl-N-(2-(2-(2-methoxyethoxy)ethoxy)-ethyl)benzamide] | 4.3 nM |  |  |  |  |  |  |  |  |  |

The remaining lines, values behind:

| Structure (SMILES) | IC50 (GSK3α) | IC50 (HT29 cells) | IC50 (c-Src) | IC50 (Syk) | IC50 (p38 MAPKα) | IC50 (PBMCs) | % β-catenin induction (β-catenin; 1 μg/mL) | % β-catenin induction (β-catenin; 5 μg/mL) | % β-catenin induction (β-catenin; 10 μg/mL) | KinomeScan S(1) number of hits (kinases; 50 nM) | KinomeScan S(10) number of hits (kinases; 50 nM) | KinomeScan S(35) number of hits (kinases; 50 nM) | KinomeScan S(1) number of hits (kinases; 500 nM) | KinomeScan S(10) number of hits (kinases; 500 nM) | KinomeScan S(35) number of hits (kinases; 500 nM) |
| --- | --- | --- | --- | --- | --- | --- | --- | --- | --- | --- | --- | --- | --- | --- | --- |
| C#Cc1cc(Nc2nccc(Oc3ccc(NC(=O)Nc4cc(C(C)(C)C)nn4-c4ccc(C)cc4)c4c3CCCC4)n2)cc(C(=O)NCCOCCOCCOC)c1 [Example 12, 3-((4-((4-(3-(3-(tert-Butyl)-1-(p-tolyl)-1H-pyrazol-5-yl)ureido)-5,6,7,8-tetrahydronaphthalen-1-yl)oxy)pyrimidin-2-yl)amino)-5-ethynyl-N-(2-(2-(2-methoxyethoxy)-ethoxy)ethyl)benzamide] | 12500 nM | 10.9 nM |  |  |  | 11.8 nM |  |  |  |  |  |  |  |  |  |
| C#Cc1cc(Nc2nccc(Oc3ccc(NC(=O)Nc4cc(C(C)(C)C)nn4-c4ccc(OC)cc4OC)c4ccccc34)n2)cc(C(=O)NCCOCCOCCOC)c1 [Example 13, 3-((4-((4-(3-(3-(tert-Butyl)-1-(2,4-dimethoxyphenyl)-1H-pyrazol-5-yl)ureido)naphthalen-1-yl)oxy)pyrimidin-2-yl)amino)-5-ethynyl-N-(2-(2-(2-methoxyethoxy)ethoxy)ethyl)-benzamide] | 2130 nM | 3.6 nM | 21 nM | 123 nM | 370 nM | 4.6 nM | −5% | −2% | −4% |  |  |  |  |  |  |
| COCC(=O)Nc1cc(Oc2ccc(NC(=O)Nc3cc(C(C)(C)C)nn3-c3ccc(C)cc3)c3ccccc23)ccn1 [Reference Compound, N-(4-(4-(3-(3-tert-butyl-1-p-tolyl-1H-pyrazol-5-yl)ureido)naphthalen-1-yloxy)pyridin-2-yl)-2-methoxyacetamide, reference compound] |  |  |  |  |  |  | 100% |  |  | 7 | 32 | 67 | 45 | 105 | 143 |
| C#Cc1cc(Nc2nccc(Oc3ccc(NC(=O)Nc4cc(C(C)(C)C)nn4-c4cccc(CP(C)(C)=O)c4)c4ccccc34)n2)cc(C(=O)NCCOCCOCCOC)c1 [Example 14, 3-((4-((4-(3-(3-(tert-Butyl)-1-(3-((dimethylphosphoryl)methyl)phenyl)-1H-pyrazol-5-yl)-ureido)naphthalen-1-yl)oxy)pyrimidin-2-yl)amino)-5-ethynyl-N-(2-(2-(2-methoxyethoxy)-ethoxy)ethyl)benzamide] | 402 nM | 1.5 nM | 4 nM | 20 nM | 88 nM | 1.5 nM |  |  |  |  |  |  |  |  |  |

Reference: patent US10301288B2, “Kinase inhibitors” (Topivert Pharma Limited, priority 2013, dated 2019)
